For the first test, the system named is 1392 (donor line of iPSC-derived cardiomyocytes). Description: POD (EC95) for loss of peak frequency (asystole) vs vehicle; higher = less potent (higher point of departure). Particulars: exposure time: 90 min. As for the experimental part: (§1)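 Human iPSC-derived cardiomyocytes from 16 donors were exposed for 90 min at 37 °C to each PFAS at 0.1, 1, 10 and 100 µM in 0.5% DMSO, 384-well plates. Kinetic Ca2+ flux (FLIPR) and Hoechst nuclei counts were normalised to vehicle wells and fitted with a hierarchical Bayesian Hill model to give donor-specific PODs: EC05 for beat-rate increase or decrease and for decay-to-rise ratio increase (QT proxy), EC95 for peak-frequency loss (asystole), EC10 for total cell number loss. 0.03 µM is the lower bound.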
On to `O=S(=O)(O)CCC(F)(F)C(F)(F)C(F)(F)C(F)(F)C(F)(F)C(F)(F)C(F)(F)C(F)(F)F` [8:2 Fluorotelomer sulfonic acid], for which the POD vs vehicle was more than 100 µM.
The molecule `O=C(O)C(F)(F)C(F)(F)C(F)(F)C(F)(F)C(F)(F)C(F)(F)C(F)(F)C(F)(F)Cl` [9-Chloro-perfluorononanoic_acid] returned a POD vs vehicle of more than 100 µM.
The molecule `O=P(O)(O)CCC(F)(F)C(F)(F)C(F)(F)C(F)(F)C(F)(F)C(F)(F)C(F)(F)C(F)(F)F` [((Perfluorooctyl)ethyl)phosphonic_acid] registered a POD vs vehicle of more than 100 µM.
With `O=C([O-])C(F)(F)C(F)(F)C(F)(F)C(F)(F)C(F)(F)C(F)(F)C(F)(F)F.[NH4+]` [Ammonium_perfluorooctanoate], the POD vs vehicle was more than 100 µM.
As for `OCC(F)(F)C(F)(F)C(F)(F)C(F)(F)C(F)(F)C(F)F` [Dodecafluoroheptanol], the POD vs vehicle was determined as 45 µM.
The molecule `OCC(F)(F)OC(F)(F)C(F)(F)OC(F)(F)C(F)(F)OC(F)(F)F` [Fluorinated_triethylene_glycol_monomethyl_ether] displayed a POD vs vehicle of more than 100 µM.
Molecule `OCC(F)(F)C(F)(F)C(F)(F)F` [Heptafluorobutanol] came in with a POD vs vehicle of more than 100 µM.
The molecule `NC(=O)C(F)(F)C(F)(F)C(F)(F)F` [Heptafluorobutyramide] returned a POD vs vehicle of more than 100 µM.
Molecule `OCC(F)(F)C(F)(F)C(F)(F)CO` [Hexafluoroamylene_glycol] gave a POD vs vehicle of more than 100 µM.
In turn, `COC(=O)C(F)(F)C(F)(F)OC(F)(C(F)(F)F)C(F)(F)OC(F)=C(F)F` (stereo not given) [Methyl_perfluoro(3-(1-ethenyloxypropan-2-yloxy)propanoate)] showed a POD vs vehicle of more than 100 µM.
On the same count and under the same terms, under `NC(=O)C(F)(F)C(F)(F)C(F)(F)C(F)(F)F` [Nonafluoropentanamide] stands more than 100 µM; under `NC(=O)C(F)(F)C(F)(F)C(F)(F)C(F)(F)C(N)=O` [Octafluoroadipamide], more than 100 µM.
`O=C(O)C(F)(F)C(F)(F)C(F)(F)C(F)(F)C(=O)O` [Octafluoroadipic_acid] had a POD vs vehicle of more than 100 µM.
Molecule `O=C(O)C(F)(F)C(F)(F)C(F)(F)OC(F)(F)F` [Perfluoro(4-methoxybutanoic)_acid] returned a POD vs vehicle of more than 100 µM.
With `O=C(O)C(F)(F)OC(F)(F)C(F)(F)OC(F)(F)C(F)(F)OC(F)(F)C(F)(F)C(F)(F)C(F)(F)F` [Perfluoro-3,6,9-trioxatridecanoic_acid], the POD vs vehicle is more than 100 µM.
In turn, `O=C(O)C(F)(F)OC(F)(F)C(F)(F)OC(F)(F)F` [Perfluoro-3,6-dioxaheptanoic_acid] returned a POD vs vehicle of more than 100 µM.
Still for that read-out and setting: under `O=C(O)C(F)(F)OC(F)(F)C(F)(F)OC(F)(F)C(=O)O` [Perfluoro-3,6-dioxaoctane-1,8-dioic_acid] stands more than 100 µM; under `O=C(O)C(F)(F)C(F)(F)OC(F)(F)F` [Perfluoro-3-methoxypropanoic_acid], more than 100 µM.
`O=C(O)C(F)(F)C(F)(F)C(F)(F)OC(F)(C(F)(F)F)C(F)(F)F` [Perfluoro-4-isopropoxybutanoic_acid] displayed a POD vs vehicle of more than 100 µM.
On the same count and under the same terms, with `O=S(=O)(O)C(F)(F)C(F)(F)C(F)(F)C(F)(F)F` [Perfluorobutanesulfonic_acid] the figure was more than 100 µM.

The subject of another test is 1434 (donor line of iPSC-derived cardiomyocytes). Described as above. The note with it: exposure time: 90 min. Here is the method:
as §1
On to `O=S(=O)(O)CCC(F)(F)C(F)(F)C(F)(F)C(F)(F)C(F)(F)C(F)(F)C(F)(F)C(F)(F)F` [8:2 Fluorotelomer sulfonic acid], for which the POD vs vehicle is more than 100 µM.
On to `O=C(O)C(F)(F)C(F)(F)C(F)(F)C(F)(F)C(F)(F)C(F)(F)C(F)(F)C(F)(F)Cl` [9-Chloro-perfluorononanoic_acid], for which the POD vs vehicle was 87.4 µM.
Molecule `O=P(O)(O)CCC(F)(F)C(F)(F)C(F)(F)C(F)(F)C(F)(F)C(F)(F)C(F)(F)C(F)(F)F` [((Perfluorooctyl)ethyl)phosphonic_acid] yielded a POD vs vehicle of more than 100 µM.
`O=C([O-])C(F)(F)C(F)(F)C(F)(F)C(F)(F)C(F)(F)C(F)(F)C(F)(F)F.[NH4+]` [Ammonium_perfluorooctanoate] yielded a POD vs vehicle of more than 100 µM.
The same measure, in the same setting: under `OCC(F)(F)C(F)(F)C(F)(F)C(F)(F)C(F)(F)C(F)F` [Dodecafluoroheptanol] stands 45.8 µM; under `OCC(F)(F)OC(F)(F)C(F)(F)OC(F)(F)C(F)(F)OC(F)(F)F` [Fluorinated_triethylene_glycol_monomethyl_ether], more than 100 µM; under `OCC(F)(F)C(F)(F)C(F)(F)F` [Heptafluorobutanol], more than 100 µM.
Still for that read-out and setting: under `NC(=O)C(F)(F)C(F)(F)C(F)(F)F` [Heptafluorobutyramide] stands more than 100 µM.
`OCC(F)(F)C(F)(F)C(F)(F)CO` [Hexafluoroamylene_glycol] returned a POD vs vehicle of more than 100 µM.
Still for that read-out and setting: with `COC(=O)C(F)(F)C(F)(F)OC(F)(C(F)(F)F)C(F)(F)OC(F)=C(F)F` (stereo not given) [Methyl_perfluoro(3-(1-ethenyloxypropan-2-yloxy)propanoate)] the figure was more than 100 µM; with `NC(=O)C(F)(F)C(F)(F)C(F)(F)C(F)(F)F` [Nonafluoropentanamide], more than 100 µM; with `NC(=O)C(F)(F)C(F)(F)C(F)(F)C(F)(F)C(N)=O` [Octafluoroadipamide], more than 100 µM.
Still for that read-out and setting: with `O=C(O)C(F)(F)C(F)(F)C(F)(F)C(F)(F)C(=O)O` [Octafluoroadipic_acid] the figure was more than 100 µM.
In turn, `O=C(O)C(F)(F)C(F)(F)C(F)(F)OC(F)(F)F` [Perfluoro(4-methoxybutanoic)_acid] displayed a POD vs vehicle of more than 100 µM.
As to `O=C(O)C(F)(F)OC(F)(F)C(F)(F)OC(F)(F)C(F)(F)OC(F)(F)C(F)(F)C(F)(F)C(F)(F)F` [Perfluoro-3,6,9-trioxatridecanoic_acid], the POD vs vehicle is 89.3 µM.
The molecule `O=C(O)C(F)(F)OC(F)(F)C(F)(F)OC(F)(F)F` [Perfluoro-3,6-dioxaheptanoic_acid] registered a POD vs vehicle of more than 100 µM.
As to `O=C(O)C(F)(F)OC(F)(F)C(F)(F)OC(F)(F)C(=O)O` [Perfluoro-3,6-dioxaoctane-1,8-dioic_acid], the POD vs vehicle is more than 100 µM.
On the same count and under the same terms, with `O=C(O)C(F)(F)C(F)(F)OC(F)(F)F` [Perfluoro-3-methoxypropanoic_acid] the figure was more than 100 µM; with `O=C(O)C(F)(F)C(F)(F)C(F)(F)OC(F)(C(F)(F)F)C(F)(F)F` [Perfluoro-4-isopropoxybutanoic_acid], more than 100 µM.
The molecule `O=S(=O)(O)C(F)(F)C(F)(F)C(F)(F)C(F)(F)F` [Perfluorobutanesulfonic_acid] gave a POD vs vehicle of more than 100 µM.

Another test relates to 1516 (donor line of iPSC-derived cardiomyocytes). The description is as above. Particulars: exposure time: 90 min. As for the experimental part:
as §1
`O=S(=O)(O)CCC(F)(F)C(F)(F)C(F)(F)C(F)(F)C(F)(F)C(F)(F)C(F)(F)C(F)(F)F` [8:2 Fluorotelomer sulfonic acid] yielded a POD vs vehicle of more than 100 µM.
`O=C(O)C(F)(F)C(F)(F)C(F)(F)C(F)(F)C(F)(F)C(F)(F)C(F)(F)C(F)(F)Cl` [9-Chloro-perfluorononanoic_acid]: the POD vs vehicle stood at 90.9 µM.
Same read-out and setting: under `O=P(O)(O)CCC(F)(F)C(F)(F)C(F)(F)C(F)(F)C(F)(F)C(F)(F)C(F)(F)C(F)(F)F` [((Perfluorooctyl)ethyl)phosphonic_acid] stands more than 100 µM.
In turn, `O=C([O-])C(F)(F)C(F)(F)C(F)(F)C(F)(F)C(F)(F)C(F)(F)C(F)(F)F.[NH4+]` [Ammonium_perfluorooctanoate] registered a POD vs vehicle of more than 100 µM.
`OCC(F)(F)C(F)(F)C(F)(F)C(F)(F)C(F)(F)C(F)F` [Dodecafluoroheptanol] returned a POD vs vehicle of 48.2 µM.
The molecule `OCC(F)(F)OC(F)(F)C(F)(F)OC(F)(F)C(F)(F)OC(F)(F)F` [Fluorinated_triethylene_glycol_monomethyl_ether] showed a POD vs vehicle of more than 100 µM.
Still for that read-out and setting: with `OCC(F)(F)C(F)(F)C(F)(F)F` [Heptafluorobutanol] the figure was more than 100 µM; with `NC(=O)C(F)(F)C(F)(F)C(F)(F)F` [Heptafluorobutyramide], more than 100 µM; with `OCC(F)(F)C(F)(F)C(F)(F)CO` [Hexafluoroamylene_glycol], more than 100 µM.
The molecule `COC(=O)C(F)(F)C(F)(F)OC(F)(C(F)(F)F)C(F)(F)OC(F)=C(F)F` (stereo not given) [Methyl_perfluoro(3-(1-ethenyloxypropan-2-yloxy)propanoate)] registered a POD vs vehicle of more than 100 µM.

Values taken from the supplement of paper PMC11368000.
